Assay [1] relates to spontaneously hypertensive rat (SHR). The conditions noted are these: J. Dairy Sci. 78:1253-1257(1995); cited from earlier work.
For a further assay, the target named is ACE (Homo sapiens, UniProt P12821). As to the kind of experiment: ACE inhibitory activity of IPP per unit weight relative to VPP. Type of assay: biochemical.
Sequence of ACE (P12821 30-1306, species assumed): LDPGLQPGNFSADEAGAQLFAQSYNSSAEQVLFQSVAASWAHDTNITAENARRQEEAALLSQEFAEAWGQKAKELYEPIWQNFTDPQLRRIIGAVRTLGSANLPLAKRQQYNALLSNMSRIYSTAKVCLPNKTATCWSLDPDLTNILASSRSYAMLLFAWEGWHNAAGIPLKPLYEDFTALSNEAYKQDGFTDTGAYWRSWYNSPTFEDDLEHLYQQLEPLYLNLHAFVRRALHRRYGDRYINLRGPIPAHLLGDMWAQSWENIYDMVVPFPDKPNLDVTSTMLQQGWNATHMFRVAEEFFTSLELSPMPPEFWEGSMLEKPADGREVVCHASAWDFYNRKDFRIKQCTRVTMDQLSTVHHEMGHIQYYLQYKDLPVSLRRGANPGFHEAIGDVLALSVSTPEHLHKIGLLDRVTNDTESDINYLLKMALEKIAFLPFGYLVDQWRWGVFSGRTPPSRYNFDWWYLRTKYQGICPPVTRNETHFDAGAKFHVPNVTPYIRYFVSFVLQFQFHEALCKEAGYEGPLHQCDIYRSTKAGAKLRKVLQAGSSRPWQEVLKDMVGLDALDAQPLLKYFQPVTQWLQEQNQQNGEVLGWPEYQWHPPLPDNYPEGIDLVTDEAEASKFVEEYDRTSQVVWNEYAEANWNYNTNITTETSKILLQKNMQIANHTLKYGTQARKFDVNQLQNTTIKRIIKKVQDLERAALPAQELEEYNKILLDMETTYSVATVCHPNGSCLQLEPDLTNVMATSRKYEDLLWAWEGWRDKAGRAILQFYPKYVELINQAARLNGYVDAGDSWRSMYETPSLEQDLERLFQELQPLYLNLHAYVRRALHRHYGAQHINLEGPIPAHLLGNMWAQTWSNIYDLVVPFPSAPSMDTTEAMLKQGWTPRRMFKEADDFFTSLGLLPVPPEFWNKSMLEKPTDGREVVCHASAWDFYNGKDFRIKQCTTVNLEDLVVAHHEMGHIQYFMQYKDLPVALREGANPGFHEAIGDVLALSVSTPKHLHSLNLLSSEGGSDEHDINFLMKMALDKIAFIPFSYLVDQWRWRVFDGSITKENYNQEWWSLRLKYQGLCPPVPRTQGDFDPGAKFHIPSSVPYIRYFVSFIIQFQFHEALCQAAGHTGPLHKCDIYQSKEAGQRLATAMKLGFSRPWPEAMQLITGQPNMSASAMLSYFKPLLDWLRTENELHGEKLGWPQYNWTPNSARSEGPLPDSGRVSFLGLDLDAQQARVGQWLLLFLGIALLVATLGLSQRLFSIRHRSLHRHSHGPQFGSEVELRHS

On to Ile-Pro-Pro [IPP], for which the Hypotensive effect result in assay [1] is listed as “strong hypotensive effect”. Moreover, the “ACE inhibitory activity per unit weight relative to VPP” value on ACE is on record as 1.7 times that of VPP.
In the case of Val-Pro-Pro [VPP], the Hypotensive effect entry in assay [1] is “strong hypotensive effect”.

The record behind these values is patent US7282354B2, “Method for producing fermented milk product” (Calpis Co., Ltd., priority 2000, dated 2007).
